Where a name gives a salt, the structure may show the parent alone.
How the values were obtained:
Assay type in all cases: cell-based
[1] = target: T1, Agam\Or28 + Agam\Orco (Anopheles gambiae, UniProt Q7QCC7); experiment: Inhibition of heteromeric OR in oocytes (acetophenone activation); details: for inhibition of odorant activation: 100 µM antagonist, 40 µM acetophenone
T1 construct: expressed in transfected cells; host or cells: Xenopus laevis oocytes
T1 sequence (Q7QCC7 1-478): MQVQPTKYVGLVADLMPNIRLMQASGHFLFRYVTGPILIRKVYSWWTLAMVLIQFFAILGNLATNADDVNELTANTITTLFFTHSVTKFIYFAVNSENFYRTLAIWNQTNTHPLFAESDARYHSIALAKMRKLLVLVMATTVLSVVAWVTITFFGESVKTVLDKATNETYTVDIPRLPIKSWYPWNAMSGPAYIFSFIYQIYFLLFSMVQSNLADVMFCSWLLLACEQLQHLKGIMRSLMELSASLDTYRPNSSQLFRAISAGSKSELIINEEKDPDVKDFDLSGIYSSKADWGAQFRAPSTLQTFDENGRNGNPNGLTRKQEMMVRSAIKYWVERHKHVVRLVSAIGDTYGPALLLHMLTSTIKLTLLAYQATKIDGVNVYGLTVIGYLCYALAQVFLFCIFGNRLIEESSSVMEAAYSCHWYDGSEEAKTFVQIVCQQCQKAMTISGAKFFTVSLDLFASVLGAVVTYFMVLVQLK
Protocol: (§1) An automated parallel electrophysiology system (OpusExpress 6000 A, Molecular Devices) was used to record Orco agonist (OLC12) or odorant induced currents under two-electrode voltage clamp. Oocytes were perfused with ND96 (in mM: 96 NaCl, 2 KCl, 1 CaCl2, 1 MgCl2, 5 HEPES, pH 7.4). DMSO was used to prepare 1 M or 100 mM stock solutions of test compounds, which were then diluted in ND96 on the day of the experiment. Compounds were applied at a flow rate of 1.0 mL/min, with extensive washing in ND96 at 4.6 mL/min between applications. Micropipettes with resistances of 0.2–2.0 MΩ were filled with 3 M KCl. The holding potential was −70 mV. Current responses were filtered (4-pole, Bessel, low pass) at 20 Hz (−3 db) and sampled at 100 Hz. OpusXpress 1.1 software (Molecular Devices) was used to capture and store current responses.

[2] = target: T2, Dmel\Or35a + Dmel\Orco (Drosophila melanogaster, UniProt Q9VNB5); experiment: Inhibition of heteromeric OR in oocytes (hexanol or OLC12 activation); details: for inhibition of odorant activation: 100 µM antagonist, 1 µM hexanol; for antagonism of OLC12 (Orco agonist) activation of heteromeric OR: 100 or 300 µM antagonist, 10 µM OLC12
T2 construct: expressed in transfected cells; host or cells: Xenopus laevis oocytes
T2 sequence (Q9VNB5 1-486): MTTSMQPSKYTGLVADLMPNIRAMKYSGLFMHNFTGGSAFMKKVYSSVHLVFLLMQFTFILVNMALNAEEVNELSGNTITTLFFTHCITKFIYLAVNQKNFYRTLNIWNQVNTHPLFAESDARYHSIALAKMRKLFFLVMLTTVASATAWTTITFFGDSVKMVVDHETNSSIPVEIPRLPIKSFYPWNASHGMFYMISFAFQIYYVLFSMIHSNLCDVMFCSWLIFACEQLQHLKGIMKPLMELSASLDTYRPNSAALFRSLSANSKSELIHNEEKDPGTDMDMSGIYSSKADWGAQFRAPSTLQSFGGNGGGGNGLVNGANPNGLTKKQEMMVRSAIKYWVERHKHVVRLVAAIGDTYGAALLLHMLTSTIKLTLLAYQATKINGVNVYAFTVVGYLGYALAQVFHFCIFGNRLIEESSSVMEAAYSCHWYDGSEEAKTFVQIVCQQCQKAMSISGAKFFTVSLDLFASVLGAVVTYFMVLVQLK
T2 sequence (Q9V3Q2 1-409 partner): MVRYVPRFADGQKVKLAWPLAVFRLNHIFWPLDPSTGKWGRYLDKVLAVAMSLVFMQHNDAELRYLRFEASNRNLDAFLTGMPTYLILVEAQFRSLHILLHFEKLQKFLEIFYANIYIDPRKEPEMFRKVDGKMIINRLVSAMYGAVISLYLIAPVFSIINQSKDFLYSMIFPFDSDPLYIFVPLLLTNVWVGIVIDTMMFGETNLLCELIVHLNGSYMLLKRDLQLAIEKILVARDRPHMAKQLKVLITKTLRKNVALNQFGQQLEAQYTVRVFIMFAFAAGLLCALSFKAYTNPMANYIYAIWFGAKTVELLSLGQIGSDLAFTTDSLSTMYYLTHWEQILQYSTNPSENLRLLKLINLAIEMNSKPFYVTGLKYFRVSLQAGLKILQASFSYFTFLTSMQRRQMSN
Protocol: as §1
(§2) To measure the ability of Orco antagonists to inhibit odorant activation, oocytes expressing heteromeric ORs (Orco + ORX) were exposed to a 30 sec application of odorant followed by a 20 min wash. Oocytes were then exposed to a 90 sec application of Orco antagonist, immediately followed by a 30 sec co-application of Orco antagonist and odorant. The current response to odorant in the presence of Orco antagonist was compared to the preceding response to odorant alone and represented as a percentage. This value was then normalized to the value obtained when the assay was run in the absence of antagonist (sham).
(§3) Figure S3. Effects of Orco antagonists on heteromeric ORs. […]
heteromeric complexes of odorant specificity subunits and Orco. The Orco antagonists tested were 3-isopropyl-6-methyl-catechol (3 I6 MC), a potent compound from the input training set, and two compounds id e ntified in Fig u re 4 an d Ta b le 1 : 2-tert-butyl-6-methylphenol (B MP ) and linalyl formate (LF) . These compounds were tested for antagonist activity against odorant activation of three ORs from Anopheles gambiae (Agam\Or28 + Agam\Orco, Agam\Or39 + A ga m\Orco, Agam\Or65 + A ga m\Orco), o ne O R fro m Culex quinquefasciatus, the southern house mosquito (Cq u i\Or21 + Cqui\Orco) an d on e O R f ro m Drosophila melanogaster (Dme l\Or35a + Dmel\Orco). Each OR was activated by its cognate odorant agonist applied at an approximate EC50 concentration. […]
SEM (n = 4). […] Statistical significance of the data in each panel was assessed by one-way analysis of variance followed by Dunnett’s multiple comparison test using the pre-normalized values for each antagonist compared to the values obtained in the sham recordings (*, p < 0 .0 5; **, p < 0. 01; ***, p < 0 . 00 1 ).

[3] = target: T3, Agam\Or39 + Agam\Orco (Anopheles gambiae, UniProt Q7QCC7); experiment: Inhibition of heteromeric OR in oocytes (6-methyl-5-hepten-2-one activation); details: 100 µM antagonist; 10 µM 6-methyl-5-hepten-2-one
T3 construct: expressed in transfected cells; host or cells: Xenopus laevis oocytes
T3 sequence (Q7QCC7 1-478): T1 sequence (Q7QCC7 1-478)
Protocol: as §1, §2, §3
heteromeric complexes of odorant specificity subunits and Orco. The Orco antagonists tested were 3-isopropyl-6-methyl-catechol (3 I6 MC), a potent compound from the input training set, and two compounds id e ntified in Fig u re 4 an d Ta b le 1 : 2-tert-butyl-6-methylphenol (B MP ) and linalyl formate (LF) . […]
Statistical significance of the data in each panel was assessed by one-way analysis of variance followed by Dunnett’s […]

SMILES	inhibition of odorant activation [1]	inhibition of odorant activation [2]	antagonism of OLC12 (Orco agonist) activation of heteromeric OR [2]	inhibition of odorant activation [3]	IC50 ([1]; 100 µM acetophenone, n = 4-8, read-out: IC50 for inhibition of Agam\Or28 + Agam\Orco activation by 100 µM ACE) [µM]	mechanism of inhibition of odorant responses ([1]; 10 vs 100 µM acetophenone fails to shift inhibition curve)
Cc1ccc(C(C)C)c(O)c1O [3I6MC, 3-isopropyl-6-methyl catechol]	could inhibit odorant activation	could inhibit odorant activation	could antagonize OLC12	could inhibit odorant activation		
Cc1cccc(C(C)(C)C)c1O [BMP, 2-tert-butyl-6-methylphenol]	able to inhibit odorant activation	able to inhibit odorant activation	able to antagonize OLC12	able to inhibit odorant activation	53 ± 9	non-competitive
C=CC(C)(CCC=C(C)C)OC=O (centres unmarked) [LF, linalyl formate]	able to inhibit odorant activation	able to inhibit odorant activation	able to antagonize OLC12	able to inhibit odorant activation		

From PMC6411751, “Use of machine learning to identify novel, behaviorally active antagonists of the insect odorant receptor co-receptor (Orco) subunit” (Scientific Reports, 2019)
